In brackets after ≈: the same amount, converted by molar mass.
How the values were obtained:
[1] = test system: fourth instar larvae of diamond-back moth (Plutella maculipennis); assay: Emulsifiable concentrate sprayed on chinese cabbage leaves, diamond-back moth larvae (Experiment 2); format: in vivo; settings: for LC50: Plutella, 48 h, 20% emulsifiable concentrate diluted with water, after 2 days, read-out: LC50 (50% lethal concentration); for Relative efficacy: corresponding chrysanthemic acid ester (control) = 1.0
Description: Each of the present compounds (1), (2) and (5), and the corresponding chrysanthemic acid esters were individually formulated into a 20% emulsifiable concentrate by usual methods.
10 ml of each of the emulsifiable concentrates which had been diluted with water to the required concentration were sprayed on to four leaves of chinese cabbage grown up to a 3- to 4-leave stage. Then the leaves were placed in a glass Petri dish of 14 cm in diameter and 7 cm high, and 10 fourth instar larvae of diamond-back moth (Plutella maculipennis) were liberated therein. After 2 days, the dead and alive were counted.

[2] = test system: green rice leafhoppers (Nephotettix cincpriceps); assay: Knock-down of green rice leafhoppers on treated rice seedlings (Experiment 3); format: in vivo; settings: 400-fold aqueous diluted solution of 20% emulsifiable concentrate
Description: Each of the present compounds (1) to (7), and the corresponding chrysanthemic acid esters were individually formulated into a 20% emulsifiable concentrate by usual methods.
About 20 rice seedlings were grown up to a 3- to 4-leave stage in a flower pot of 10 cm in diameter, and the 400-fold aqueous diluted solution of each emulsifiable concentrate was applied thereto by means of a turn table.
After air-drying, each pot was placed in a 5 liter glass beaker and covered with gauze at the top. Then, 20 green rice leafhoppers (Nephotettix cincpriceps) were liberated therein and the number of knocked down insects were counted at definite time intervals.

[3] = test system: house-fly adults (Musca domestica); assay: Oil spray, Campbel's turn table apparatus, house-fly adults (Experiment 1); format: in vivo; settings: for LC50: Musca domestica, read-out: LC50 (50% lethal concentration); for Relative efficacy: corresponding dl-trans-chrysanthemic acid ester (control) = 1.0
Description: The dl-trans isomer of each of the present compounds (1), (2), (4) and (7), and the corresponding dl-trans-chrysanthemic acid esters were individually dissolved in deodorized kerosene to prepare oil sprays of required concentration.
5 ml of each of the oil sprays were sprayed, using Campbel's turn table apparatus ("Soap and Sanitary Chemicals," Vol. 14, No. 6, 119, 1938). Twenty seconds after spraying, the shutter was opened, and about 100 house-fly adults (Musca domestica) per group were exposed to the descending mist for 10 minutes and then transferred to the observation cage. In the cage, the flies were fed and allowed to stand for one day at room temperature.
Thereafter, the number of killed flies was counted to calculate the mortality thereof.

insects = settings: J. Farkas et al., Chem. Listy 52, 688, 1958; cited from earlier work

Row | Molecule | KT50 (a time required for 50% knock-down) [2] | LC50 ([3]; 24 h) | Relative efficacy [3] | further results
1 | CC(C)=CC1C(C(=O)OCc2ccc(Cc3ccccc3)s2)C1(C)C (stereo not shown) | 37 min | – | – | LC50 [1]: 85 µg/mL (≈ 240 µM); Relative efficacy [1]: 1.0
2 | CC(C)=CC1C(C(=O)OCc2ccc(Oc3ccccc3)s2)C1(C)C (stereo not shown) | 45 min | – | – | LC50 [1]: 97 µg/mL (≈ 272 µM); Relative efficacy [1]: 1.0
3 | CC(C)=CC1C(C(=O)OCc2csc(Cc3ccccc3)c2)C1(C)C (stereo not shown) | 53 min | – | – | –
4 | CC(C)=CC1C(C(=O)OCc2cc3c(s2)CCCC3)C1(C)C (stereo not shown) | 46 min | – | – | –
5 | CC(C)=CC1C(C(=O)OCc2cc3c(s2)CCC3)C1(C)C (stereo not shown) | 43 min | – | – | LC50 [1]: 114 µg/mL (≈ 374 µM); Relative efficacy [1]: 1.0
6 | C=CCc1ccc(COC(=O)C2C(C=C(C)C)C2(C)C)s1 (stereo not shown) | 40 min | – | – | –
7 | C#CCc1ccc(COC(=O)C2C(C=C(C)C)C2(C)C)s1 (stereo not shown) | 38 min | – | – | –
8 | CC(C)=CC1C(C(=O)OCc2ccc(C3C=CCC3)s2)C1(C)C (stereo not shown) | 40 min | – | – | –
9 | CC(C)=C[C@@H]1[C@@H](C(=O)OCc2ccc(Cc3ccccc3)s2)C1(C)C (relative stereo) | – | 386 µg/mL (≈ 1090 µM) | 1.0 | –
10 | CC(C)=C[C@@H]1[C@@H](C(=O)OCc2cc3c(s2)CCCC3)C1(C)C (relative stereo) | – | 834 µg/mL (≈ 2620 µM) | 1.0 | –
11 | CC(C)=C[C@@H]1[C@@H](C(=O)OCc2ccc(Oc3ccccc3)s2)C1(C)C (relative stereo) | – | 540 µg/mL (≈ 1510 µM) | 1.0 | –
12 | C#CCc1ccc(COC(=O)[C@@H]2[C@@H](C=C(C)C)C2(C)C)s1 (relative stereo) | – | 858 µg/mL (≈ 2840 µM) | 1.0 | –
13 | CC1(C)[C@H](C=C(Cl)Cl)[C@H]1C(=O)OCc1ccc(Cc2ccccc2)s1 (relative stereo) [dl-Trans isomer of present compound (1), 5-benzyl-2-thenyl 2',2'-dimethyl-3'-(2",2"-dichlorovinyl)-cyclopropanecarboxylate] | – | 90 µg/mL (≈ 228 µM) | 4.3 | –
14 | CC1(C)[C@H](C=C(Cl)Cl)[C@H]1C(=O)OCc1ccc(Oc2ccccc2)s1 (relative stereo) [dl-Trans isomer of present compound (2), 5-Phenoxy-2-thenyl 2',2'-dimethyl-3'-(2",2"-dichlorovinyl)-cyclopropanecarboxylate] | – | 135 µg/mL (≈ 340 µM) | 4.0 | –
15 | CC1(C)[C@H](C=C(Cl)Cl)[C@H]1C(=O)OCc1cc2c(s1)CCCC2 (relative stereo) [dl-Trans isomer of present compound (4), 4-5-Tetramethylene-2-thenyl 2',2'-dimethyl-3'-(2",2"-dichlorovinyl)-cyclopropanecarboxylate] | – | 217 µg/mL (≈ 604 µM) | 3.8 | –
16 | C#CCc1ccc(COC(=O)[C@@H]2[C@@H](C=C(Cl)Cl)C2(C)C)s1 (relative stereo) [dl-Trans isomer of present compound (7), 5-Propargyl-2-thenyl 2',2'-dimethyl-3'-(2",2"-dichlorovinyl)-cyclopropanecarboxylate] | – | 205 µg/mL (≈ 597 µM) | 4.2 | –
17 | CC1(C)C(C=C(Cl)Cl)C1C(=O)OCc1ccc(Cc2ccccc2)s1 (stereo not shown) [Present compound (1), 5-benzyl-2-thenyl 2',2'-dimethyl-3'-(2",2"-dichlorovinyl)-cyclopropanecarboxylate] | 17 min | – | – | LC50 [1]: 28 µg/mL (≈ 70.8 µM); Relative efficacy [1]: 3.0
18 | CC1(C)C(C=C(Cl)Cl)C1C(=O)OCc1ccc(Oc2ccccc2)s1 (stereo not shown) [Present compound (2), 5-Phenoxy-2-thenyl 2',2'-dimethyl-3'-(2",2"-dichlorovinyl)-cyclopropanecarboxylate] | 28 min | – | – | LC50 [1]: 37 µg/mL (≈ 93.1 µM); Relative efficacy [1]: 2.6
19 | CC1(C)C(C=C(Cl)Cl)C1C(=O)OCc1csc(Cc2ccccc2)c1 (stereo not shown) [Present compound (3), 5-Benzyl-3-thenyl 2',2'-dimethyl-3'-(2",2"-dichlorovinyl)-cyclopropanecarboxylate] | 30 min | – | – | –
20 | CC1(C)C(C=C(Cl)Cl)C1C(=O)OCc1cc2c(s1)CCCC2 (stereo not shown) [Present compound (4), 4-5-Tetramethylene-2-thenyl 2',2'-dimethyl-3'-(2",2"-dichlorovinyl)-cyclopropanecarboxylate] | 24 min | – | – | –
21 | CC1(C)C(C=C(Cl)Cl)C1C(=O)OCc1cc2c(s1)CCC2 (stereo not shown) [Present compound (5), 4,5-Trimethylene-2-thenyl 2',2'-dimethyl-3'-(2",2"-dichlorovinyl)-cyclopropanecarboxylate] | 21 min | – | – | LC50 [1]: 47 µg/mL (≈ 136 µM); Relative efficacy [1]: 2.4
22 | C=CCc1ccc(COC(=O)C2C(C=C(Cl)Cl)C2(C)C)s1 (stereo not shown) [Present compound (6), 5-Allyl-2-thenyl 2',2'-dimethyl-3'-(2",2"-dichlorovinyl)-cyclopropanecarboxylate] | 19 min | – | – | –
23 | C#CCc1ccc(COC(=O)C2C(C=C(Cl)Cl)C2(C)C)s1 (stereo not shown) [Present compound (7), 5-Propargyl-2-thenyl 2',2'-dimethyl-3'-(2",2"-dichlorovinyl)-cyclopropanecarboxylate] | 15 min | – | – | –
24 | CC1(C)C(C=C(Cl)Cl)C1C(=O)OCc1ccc(C2C=CCC2)s1 (stereo not shown) [Present compound (8), 5-(2'-cyclopentene-1'-yl)-2-thenyl 2",2"-dimethyl-3"-(2"',2"'-dichlorovinyl)-cyclopropanecarboxylate] | 19 min | – | – | –
25 | C=CCC1=C(C)C(OC(=O)C2C(C=C(Cl)Cl)C2(C)C)CC1=O (stereo not shown) [allethronyl ester of the acid] | – | – | – | insecticidal activity (insects): close to that of chrysanthemic acid ester
26 | Pyrethrin | – | – | – | LC50 (50% lethal concentration) ([3]; house fly, in vivo, 24 h): 216 mg/100 ml

Source: patent publication US3932459A, “Novel cyclopropanecarboxylic acid esters” (Sumitomo Chemical Company, Limited, priority 1973, dated 1976)
